Biological target: T1, WIZ (Homo sapiens, UniProt O95785+Q96SW2)
T1 construct: expressed in transfected cells
Test: Quantification of WIZ protein levels in HiBit tag fusion protein assay (WIZ HiBit assay in 293T cells)
Type: cell-based
Conditions: for Dmax at 25 µM / remaining activity at 25 µM: HEK-293T; for Dmax at 25 µM: read-out: % degradation of WIZ (100-Amax); for remaining activity at 25 µM: read-out: WIZ Amax; for DC50: WIZ HiBit assay in 293T cells, 10-point, 5-fold dilution, highest concentration 25 μM, about 18 hours, read-out: WIZ AC50
Description: The HiBit system from Promega was used to develop high-throughput and quantitative assays to measure changes in WIZ protein levels in response to compounds. The HiBit tag was derived from a split Nanoluciferase and has the following protein sequence: […] (SEQ ID NO: 1). The complementary fragment of Nanoluciferase (known as LgBit, from Promega), was added to the HiBit tag to form an active Nanoluciferase enzyme whose activity can be precisely measured. In this way, the levels of a fusion protein with the HiBit tag can be quantified in cell lysates.
Lentiviral vectors, based on the Invitrogen™ pLenti6.2/V5 DEST backbone were constructed that places the HiBit tag upstream of WIZ and expressed the fusion protein from an HSVTK promotor.
To ensure moderate and consistent expression of the HiBit-WIZ fusion protein across all cells in the population, stable cell lines were constructed from cells harboring a single copy of the construct. Lentivirus packaged with the constructs were made using the ViraPower™kit from Invitrogen™. 293T cells from ATCC (Catalog number: CRL-3216), were infected with the virus at low multiplicity of infection and selected by 5 μg/mL blasticidin in culture media for 2 weeks.
The levels of HiBit-WIZ tagged fusion proteins in compound-treated cell lines were measured as follows:
On day 1, cells were diluted to 1.0×10^6 cells/ml in normal growth medium. 20 μL of cell suspension were plated in each well of a solid white 384-well plate. Plates were incubated overnight in a 37° C. and 5% CO2 humidified tissue culture incubator.
On day 2, serial dilutions of compounds were made in 384-well plates. Compound plates were set up with DMSO in columns 1, 2, 23, 24, and 10-point compound dilution series in column 3-12 and column 13-22. 10 mM stock solution of compound were placed into column 3 or 13 and a 1:5 serial dilution was carried out until there was a 10-point dilution series per compound. 50 nL of diluted compounds were transferred into the plated cells by Echo® (Labcyte) acoustic transfer. The highest concentration of compound was 25 μM. Plates were incubated overnight (about 18 hours) in a 37° C. and 5% CO2 humidified tissue culture incubator.
On day 3, plates were removed from the incubator and allowed to equilibrate at room temperature for 60 minutes. HiBit substrate (Nano-Glo® HiBit Lytic Detection System, Promega Catalogue number: N3050) was added as described by the manufacturers protocols. Plates were incubated at room temperature for 30 minutes and luminescence was read using an EnVision® reader (PerkinElmer®). Data was analyzed and visualized using the Spotfire® software package.
WIZ Amax reflects the DMSO-normalized, curve-fitted percentage of WIZ-HiBit remaining at 25 uM. It was calculated by normalizing DMSO controls to 100%, parametric curve fitting of the dose response data (10-point, 5-fold), followed by calculation of response at 25 uM using the fitted equation (nd=not determined).

[1] = DMSO-normalized, curve-fitted percentage of WIZ-HiBit remaining at 25 uM

T1 sequence (O95785 whole entry): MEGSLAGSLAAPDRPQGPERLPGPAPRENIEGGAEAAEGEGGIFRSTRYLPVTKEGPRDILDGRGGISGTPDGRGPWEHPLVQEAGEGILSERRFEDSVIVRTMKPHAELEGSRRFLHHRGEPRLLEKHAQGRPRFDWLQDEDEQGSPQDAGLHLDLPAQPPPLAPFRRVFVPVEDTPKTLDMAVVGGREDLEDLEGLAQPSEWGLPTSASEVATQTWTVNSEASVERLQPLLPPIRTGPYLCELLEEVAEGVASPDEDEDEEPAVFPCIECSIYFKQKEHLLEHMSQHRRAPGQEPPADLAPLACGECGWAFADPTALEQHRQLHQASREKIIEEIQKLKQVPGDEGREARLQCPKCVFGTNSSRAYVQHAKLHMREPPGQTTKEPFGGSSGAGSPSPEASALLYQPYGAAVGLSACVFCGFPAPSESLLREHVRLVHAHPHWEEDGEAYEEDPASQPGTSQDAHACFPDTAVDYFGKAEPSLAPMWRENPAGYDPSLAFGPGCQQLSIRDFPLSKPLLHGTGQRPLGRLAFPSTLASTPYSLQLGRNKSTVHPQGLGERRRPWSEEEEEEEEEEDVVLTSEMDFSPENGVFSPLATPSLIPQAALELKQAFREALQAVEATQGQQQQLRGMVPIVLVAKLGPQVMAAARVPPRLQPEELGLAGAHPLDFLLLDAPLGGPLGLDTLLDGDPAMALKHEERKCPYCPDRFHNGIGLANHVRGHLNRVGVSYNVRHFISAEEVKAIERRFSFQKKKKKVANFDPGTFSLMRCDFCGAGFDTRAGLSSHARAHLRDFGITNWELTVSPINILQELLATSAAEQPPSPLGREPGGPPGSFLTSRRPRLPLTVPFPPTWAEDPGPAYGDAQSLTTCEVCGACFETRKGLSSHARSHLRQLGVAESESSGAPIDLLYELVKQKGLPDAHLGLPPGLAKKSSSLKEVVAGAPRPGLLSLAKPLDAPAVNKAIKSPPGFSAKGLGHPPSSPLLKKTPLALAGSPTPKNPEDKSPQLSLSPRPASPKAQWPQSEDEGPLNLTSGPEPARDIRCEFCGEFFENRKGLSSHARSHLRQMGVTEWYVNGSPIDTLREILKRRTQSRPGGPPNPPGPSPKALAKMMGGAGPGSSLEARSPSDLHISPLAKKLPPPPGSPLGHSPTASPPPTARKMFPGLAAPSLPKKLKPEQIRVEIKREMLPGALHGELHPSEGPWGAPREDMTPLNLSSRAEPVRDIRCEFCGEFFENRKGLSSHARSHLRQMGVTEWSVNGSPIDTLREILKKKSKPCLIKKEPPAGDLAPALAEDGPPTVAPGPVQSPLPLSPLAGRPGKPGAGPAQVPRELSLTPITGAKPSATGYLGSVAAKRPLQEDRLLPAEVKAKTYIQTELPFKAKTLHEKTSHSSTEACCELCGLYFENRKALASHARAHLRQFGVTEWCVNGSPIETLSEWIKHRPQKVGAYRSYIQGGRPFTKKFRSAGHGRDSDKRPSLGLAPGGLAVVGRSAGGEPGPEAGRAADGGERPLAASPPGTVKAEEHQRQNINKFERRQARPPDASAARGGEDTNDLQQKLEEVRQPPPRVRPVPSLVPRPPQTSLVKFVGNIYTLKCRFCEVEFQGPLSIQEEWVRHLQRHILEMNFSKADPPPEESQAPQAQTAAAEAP
T1 sequence (Q96SW2 whole entry): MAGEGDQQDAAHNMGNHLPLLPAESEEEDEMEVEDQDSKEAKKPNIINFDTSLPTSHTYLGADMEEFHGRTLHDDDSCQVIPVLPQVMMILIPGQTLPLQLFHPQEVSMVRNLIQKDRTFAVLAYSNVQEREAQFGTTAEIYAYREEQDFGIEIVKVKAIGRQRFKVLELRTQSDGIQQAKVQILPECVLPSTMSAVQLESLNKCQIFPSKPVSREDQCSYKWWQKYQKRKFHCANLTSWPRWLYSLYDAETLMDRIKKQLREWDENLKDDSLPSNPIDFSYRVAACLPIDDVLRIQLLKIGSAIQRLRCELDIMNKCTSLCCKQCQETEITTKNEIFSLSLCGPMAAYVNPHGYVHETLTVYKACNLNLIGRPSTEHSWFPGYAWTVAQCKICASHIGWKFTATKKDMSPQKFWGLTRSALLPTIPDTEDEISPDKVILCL
T1 sequence (Q16531 whole entry partner): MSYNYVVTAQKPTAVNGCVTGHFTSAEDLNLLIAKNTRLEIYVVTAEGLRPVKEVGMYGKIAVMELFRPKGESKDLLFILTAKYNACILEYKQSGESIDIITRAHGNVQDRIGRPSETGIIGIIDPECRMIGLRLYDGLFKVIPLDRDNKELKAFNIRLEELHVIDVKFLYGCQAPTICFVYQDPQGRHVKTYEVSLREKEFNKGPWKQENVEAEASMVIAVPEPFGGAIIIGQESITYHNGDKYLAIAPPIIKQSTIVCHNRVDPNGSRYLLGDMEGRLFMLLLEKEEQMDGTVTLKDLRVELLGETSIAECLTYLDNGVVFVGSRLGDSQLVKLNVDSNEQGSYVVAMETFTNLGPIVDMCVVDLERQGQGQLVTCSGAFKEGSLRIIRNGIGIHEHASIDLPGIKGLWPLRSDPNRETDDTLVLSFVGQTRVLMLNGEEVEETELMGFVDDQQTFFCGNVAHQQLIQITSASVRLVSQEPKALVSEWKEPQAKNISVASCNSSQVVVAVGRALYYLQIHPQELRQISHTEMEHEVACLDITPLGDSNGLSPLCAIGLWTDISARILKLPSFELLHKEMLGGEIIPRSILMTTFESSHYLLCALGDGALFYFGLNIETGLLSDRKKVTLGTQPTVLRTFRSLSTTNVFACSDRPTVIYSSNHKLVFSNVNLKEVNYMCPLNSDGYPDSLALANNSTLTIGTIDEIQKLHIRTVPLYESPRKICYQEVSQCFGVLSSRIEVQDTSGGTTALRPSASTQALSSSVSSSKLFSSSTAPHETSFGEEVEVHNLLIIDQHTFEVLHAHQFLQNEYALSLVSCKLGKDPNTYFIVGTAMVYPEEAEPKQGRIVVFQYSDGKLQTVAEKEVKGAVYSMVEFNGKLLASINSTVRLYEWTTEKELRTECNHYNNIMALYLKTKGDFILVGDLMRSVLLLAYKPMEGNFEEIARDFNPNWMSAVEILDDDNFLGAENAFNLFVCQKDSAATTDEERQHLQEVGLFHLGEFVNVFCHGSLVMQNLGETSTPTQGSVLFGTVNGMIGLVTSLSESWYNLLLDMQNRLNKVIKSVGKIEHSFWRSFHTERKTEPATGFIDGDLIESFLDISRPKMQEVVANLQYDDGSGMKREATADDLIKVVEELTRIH

Dmax at 25 µM (100 minus Amax at 25 uM) [%] | remaining activity at 25 µM [1] [%] | DC50 [nM] | SMILES | % degradation of WIZ (100-Amax) (100 minus Amax at 25 uM) [%] | WIZ Amax [1] [%]
66 | 34 | 256 | CC(C)CN1CCN(Cc2ccc3onc(N4CCC(=O)NC4=O)c3c2)CC1=O [Example 113, 1-(5-((4-isobutyl-3-oxopiperazin-1-yl)methyl)benzo[d]isoxazol-3-yl)dihydropyrimidine-2,4(1H,3H)-dione] |  | 
82 | 18 | 145 | CC(C)S(=O)(=O)N1CCN(Cc2ccc3onc(N4CCC(=O)NC4=O)c3c2)CC1 [Example 84, 1-(5-((4-(isopropylsulfonyl)piperazin-1-yl)methyl)benzo[d]isoxazol-3-yl)dihydropyrimidine-2,4(1H,3H)-dione] |  | 
83 | 17 | 538 | C[C@@H]1CN(C2CC2)CCN1Cc1ccc2onc(N3CCC(=O)NC3=O)c2c1 [Example 120, (R)-1-(5-((4-cyclopropyl-2-methylpiperazin-1-yl)methyl)benzo[d]isoxazol-3-yl)dihydropyrimidine-2,4(1H,3H)-dione] |  | 
81 | 19 | 50 | O=C1CCN(c2noc3ccc(CN4C[C@H]5C[C@@H]4CN5CC4CCOCC4)cc23)C(=O)N1 [Example 98, 1-(5-(((1R,4R)-5-((tetrahydro-2H-pyran-4-yl)methyl)-2,5-diazabicyclo[2.2.1]heptan-2-yl)methyl)benzo[d]isoxazol-3-yl)dihydropyrimidine-2,4(1H,3H)-dione] |  | 
80 | 20 | 208 | CN1CCN(Cc2ccc3onc(N4CCC(=O)NC4=O)c3c2)C[C@@H]1C(F)F [Example 118, (R)-1-(5-((3-(difluoromethyl)-4-methylpiperazin-1-yl)methyl)benzo[d]isoxazol-3-yl)dihydropyrimidine-2,4(1H,3H)-dione] |  | 
69 | 31 | 577 | C[C@@H]1CN(C)C[C@H](C)N1Cc1ccc2onc(N3CCC(=O)NC3=O)c2c1 [Example 108, 1-(5-(((2R,6S)-2,4,6-trimethylpiperazin-1-yl)methyl)benzo[d]isoxazol-3-yl)dihydropyrimidine-2,4(1H,3H)-dione] |  | 
86 | 14 | 6 | Cc1c(CN2CCN(CC3CC3)[C@@H](C)C2)ccc2onc(N3CCC(=O)NC3=O)c12 [Example 130, (S)-1-(5-((4-(cyclopropylmethyl)-3-methylpiperazin-1-yl)methyl)-4-methylbenzo[d]isoxazol-3-yl)dihydropyrimidine-2,4(1H,3H)-dione] |  | 
84 | 16 | 192 | CN1C[C@H]2C[C@@H]1CN2Cc1ccc2onc(N3CCC(=O)NC3=O)c2c1 [Example 97] |  | 
75 | 25 | 373 | C[C@H]1CN(S(C)(=O)=O)[C@@H](C)CN1Cc1ccc2onc(N3CCC(=O)NC3=O)c2c1 [Example 105, 1-(5-(((2S,5S)-2,5-dimethyl-4-(methylsulfonyl)piperazin-1-yl)methyl)benzo[d]isoxazol-3-yl)dihydropyrimidine-2,4(1H,3H)-dione] |  | 

Continued, molecule first:

SMILES | Dmax at 25 µM (100 minus Amax at 25 uM) [%] | remaining activity at 25 µM [1] [%] | DC50 [nM] | % degradation of WIZ (100-Amax) (100 minus Amax at 25 uM) [%] | WIZ Amax [1] [%]
O=C1CCN(c2noc3ccc(CC4CCNC4)cc23)C(=O)N1 (stereo not drawn) [Example 48, 1-(5-(pyrrolidin-3-ylmethyl)benzo[d]isoxazol-3-yl)dihydropyrimidine-2,4(1H,3H)-dione] | 77 | 23 | 1160 |  | 
CN1CCCC(Cc2ccc3onc(N4CCC(=O)NC4=O)c3c2)CC1 (stereo not drawn) [Example 53, 1-(5-((1-methylazepan-4-yl)methyl)benzo[d]isoxazol-3-yl)dihydropyrimidine-2,4(1H,3H)-dione] | 87 | 13 | 4 |  | 
O=C1CCN(c2noc3ccc(CC4C[C@H]5CC[C@@H](C4)N5)cc23)C(=O)N1 (stereo partly drawn) [Example 56, 1-(5-(((1R,5S)-8-azabicyclo[3.2.1]octan-3-yl)methyl)benzo[d]isoxazol-3-yl)dihydropyrimidine-2,4(1H,3H)-dione] |  |  | 251 | 45 | 55
CS(=O)(=O)N1[C@@H]2CC[C@H]1CC(Cc1ccc3onc(N4CCC(=O)NC4=O)c3c1)C2 (stereo partly drawn) [Example 60, 1-(5-(((1R,5S)-8-(methylsulfonyl)-8-azabicyclo[3.2.1]octan-3-yl)methyl)benzo[d]isoxazol-3-yl)dihydropyrimidine-2,4(1H,3H)-dione] | 90 | 10 | 9 |  | 
O=C1CCN(c2noc3ccc(CN4CCN(C5CCOCC5)CC4)cc23)C(=O)N1 [Example 81, 1-(5-((4-(tetrahydro-2H-pyran-4-yl)piperazin-1-yl)methyl)benzo[d]isoxazol-3-yl)dihydropyrimidine-2,4(1H,3H)-dione] | 90 | 10 | 26 |  | 
O=C1CCN(c2noc3ccc(CC4CCN(CC(F)(F)F)CC4)cc23)C(=O)N1 [Example 13, 1-(5-((1-(2,2,2-trifluoroethyl)piperidin-4-yl)methyl)benzo[d]isoxazol-3-yl)dihydropyrimidine-2,4(1H,3H)-dione] | 89 | 11 | 39 |  | 
O=C1CCN(c2noc3ccc(CC4CCN(CC5CC5)CC4)cc23)C(=O)N1 [Example 6, 1-(5-((1-(cyclopropylmethyl)piperidin-4-yl)methyl)benzo[d]isoxazol-3-yl)dihydropyrimidine-2,4(1H,3H)-dione] | 91 | 9 | 30 |  | 
C[C@@H]1CN(CC(=O)N2CCCCC2)CCN1Cc1ccc2onc(N3CCC(=O)NC3=O)c2c1 [Example 70, (R)-1-(5-((2-methyl-4-(2-oxo-2-(piperidin-1-yl)ethyl)piperazin-1-yl)methyl)benzo[d]isoxazol-3-yl)dihydropyrimidine-2,4(1H,3H)-dione] | 78 | 22 | 300 |  | 
O=C1CCN(c2noc3ccc(CN4C[C@H]5CC[C@@H](C4)N5)cc23)C(=O)N1 [Example 100, 1-(5-(((1R,5S)-3,8-diazabicyclo[3.2.1]octan-3-yl)methyl)benzo[d]isoxazol-3-yl)dihydropyrimidine-2,4(1H,3H)-dione] | 76 | 24 | 34 |  | 
CC(C)CN1CCC(Cc2ccc3onc(N4CCC(=O)NC4=O)c3c2)CC1 [Example 5, 1-(5-((1-isobutylpiperidin-4-yl)methyl)benzo[d]isoxazol-3-yl)dihydropyrimidine-2,4(1H,3H)-dione] | 91 | 9 | 14 |  | 
CC(C)S(=O)(=O)N1CCC(Cc2ccc3onc(N4CCC(=O)NC4=O)c3c2)CC1 [Example 14, 1-(5-((1-(isopropylsulfonyl)piperidin-4-yl)methyl)benzo[d]isoxazol-3-yl)dihydropyrimidine-2,4(1H,3H)-dione] | 90 | 10 | 14 |  | 
O=C1CCN(c2noc3ccc(CN4CCN(CC5CCOCC5)CC4)cc23)C(=O)N1 [Example 23, 1-(5-((4-((tetrahydro-2H-pyran-4-yl)methyl)piperazin-1-yl)methyl)benzo[d]isoxazol-3-yl)dihydropyrimidine-2,4(1H,3H)-dione] | 91 | 9 | 4 |  | 
O=C1CCN(c2noc3ccc(CN4CCN(Cc5ccccc5)CC4)cc23)C(=O)N1 [Example 25, 1-(5-((4-benzylpiperazin-1-yl)methyl)benzo[d]isoxazol-3-yl)dihydropyrimidine-2,4(1H,3H)-dione] | 87 | 13 | 130 |  | 
O=C1CCN(c2noc3ccc(CC4CCCN(CC5CCCCC5)C4)cc23)C(=O)N1 (stereo not drawn) [Example 44, 1-(5-((1-(cyclohexylmethyl)piperidin-3-yl)methyl)benzo[d]isoxazol-3-yl)dihydropyrimidine-2,4(1H,3H)-dione] | 77 | 23 | 475 |  | 
